# Data from the kinase profiling compilation of Christmann-Franck et al. (2016).
# Tests used:
# Assay in all cases: KINOMEscan competition binding
# ACVR1 (human) = ACVR1 (human) (UniProt Q04771); details: compound 10.0 µM
# AKT1 (human) = AKT1 (human) (UniProt P31749); details: compound 10.0 µM
# AURKB (human) = AURKB (human) (UniProt Q96GD4); details: compound 10.0 µM
# AXL (human) = AXL (human) (UniProt P30530); details: compound 10.0 µM
# CDC42BPB (human) = CDC42BPB (human) (UniProt Q9Y5S2); details: compound 10.0 µM
# CDC42BPG (human) = CDC42BPG (human) (UniProt Q6DT37); details: compound 10.0 µM
# CDKL3 (human) = CDKL3 (human) (UniProt Q8IVW4); details: compound 10.0 µM
# CPK1 (P.falciparum) = details: compound 10.0 µM
# DAPK1 (human) = DAPK1 (human) (UniProt P53355); details: compound 10.0 µM
# DAPK1 (human), sequence (P53355 whole entry, looked up): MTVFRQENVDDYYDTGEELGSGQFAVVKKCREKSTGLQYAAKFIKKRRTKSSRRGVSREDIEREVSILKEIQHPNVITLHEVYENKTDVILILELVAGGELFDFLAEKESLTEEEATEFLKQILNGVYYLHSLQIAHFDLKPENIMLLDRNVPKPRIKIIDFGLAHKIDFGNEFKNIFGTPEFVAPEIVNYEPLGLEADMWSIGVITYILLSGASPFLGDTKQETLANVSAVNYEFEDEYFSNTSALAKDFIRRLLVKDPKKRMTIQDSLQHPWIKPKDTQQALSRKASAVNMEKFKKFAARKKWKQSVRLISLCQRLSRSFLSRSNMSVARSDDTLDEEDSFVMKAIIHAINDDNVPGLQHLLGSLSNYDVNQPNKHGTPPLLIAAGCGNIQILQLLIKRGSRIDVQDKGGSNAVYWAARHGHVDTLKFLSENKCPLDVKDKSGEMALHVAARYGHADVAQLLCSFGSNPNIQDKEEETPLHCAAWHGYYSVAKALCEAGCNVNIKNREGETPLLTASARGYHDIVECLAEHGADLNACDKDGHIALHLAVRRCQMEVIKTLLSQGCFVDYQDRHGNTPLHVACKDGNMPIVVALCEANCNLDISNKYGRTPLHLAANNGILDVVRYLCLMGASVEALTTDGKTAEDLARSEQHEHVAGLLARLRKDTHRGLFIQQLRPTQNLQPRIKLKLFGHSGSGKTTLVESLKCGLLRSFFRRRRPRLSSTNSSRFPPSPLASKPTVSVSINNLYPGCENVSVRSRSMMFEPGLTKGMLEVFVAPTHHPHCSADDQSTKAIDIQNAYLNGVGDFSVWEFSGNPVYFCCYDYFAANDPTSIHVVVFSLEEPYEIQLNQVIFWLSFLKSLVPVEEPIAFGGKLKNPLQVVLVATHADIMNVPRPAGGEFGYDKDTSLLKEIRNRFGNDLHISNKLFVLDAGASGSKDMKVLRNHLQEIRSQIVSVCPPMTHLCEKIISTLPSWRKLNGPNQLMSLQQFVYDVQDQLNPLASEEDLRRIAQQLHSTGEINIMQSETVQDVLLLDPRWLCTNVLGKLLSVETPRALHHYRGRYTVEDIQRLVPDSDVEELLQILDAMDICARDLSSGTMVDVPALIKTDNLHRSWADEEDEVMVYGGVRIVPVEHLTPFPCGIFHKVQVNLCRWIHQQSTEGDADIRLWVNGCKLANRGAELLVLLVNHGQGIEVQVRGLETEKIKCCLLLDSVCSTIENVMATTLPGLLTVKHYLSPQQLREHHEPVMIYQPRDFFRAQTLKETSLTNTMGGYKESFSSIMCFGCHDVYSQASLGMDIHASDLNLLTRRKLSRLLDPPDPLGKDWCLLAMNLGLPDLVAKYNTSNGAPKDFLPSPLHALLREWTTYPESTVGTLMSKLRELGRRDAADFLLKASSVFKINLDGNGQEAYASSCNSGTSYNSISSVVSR
# DCLK1 (human) = DCLK1 (human) (UniProt O15075)
# DCLK1 (human), sequence (O15075 whole entry, looked up): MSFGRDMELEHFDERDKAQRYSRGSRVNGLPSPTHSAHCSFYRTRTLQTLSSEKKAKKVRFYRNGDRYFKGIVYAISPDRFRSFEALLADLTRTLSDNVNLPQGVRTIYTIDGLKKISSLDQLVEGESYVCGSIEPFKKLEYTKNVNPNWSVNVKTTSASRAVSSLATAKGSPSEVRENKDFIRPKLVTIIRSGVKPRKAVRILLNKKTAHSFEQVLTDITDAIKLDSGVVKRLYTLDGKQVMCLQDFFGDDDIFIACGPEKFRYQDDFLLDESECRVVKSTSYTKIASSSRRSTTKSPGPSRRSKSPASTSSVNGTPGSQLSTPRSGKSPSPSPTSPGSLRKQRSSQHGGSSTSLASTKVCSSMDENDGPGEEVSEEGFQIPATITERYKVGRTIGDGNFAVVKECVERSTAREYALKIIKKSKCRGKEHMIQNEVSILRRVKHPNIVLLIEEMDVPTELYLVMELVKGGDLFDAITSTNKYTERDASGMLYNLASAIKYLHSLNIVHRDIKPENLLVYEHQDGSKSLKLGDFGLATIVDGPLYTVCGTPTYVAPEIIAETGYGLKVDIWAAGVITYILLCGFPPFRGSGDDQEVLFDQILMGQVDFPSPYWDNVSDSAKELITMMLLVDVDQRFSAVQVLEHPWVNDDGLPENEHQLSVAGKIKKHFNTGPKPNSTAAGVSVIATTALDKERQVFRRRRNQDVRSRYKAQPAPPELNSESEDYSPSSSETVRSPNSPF
# DCLK3 (human) = DCLK3 (human) (UniProt Q9C098); details: compound 10.0 µM
# [1] = system: EGFR (human), P00533 [G719C]; details: compound 10.0 µM
# EPHA4 (human) = EPHA4 (human) (UniProt P54764); details: compound 10.0 µM
# FGFR4 (human) = FGFR4 (human) (UniProt P22455); details: compound 10.0 µM
# [2] = system: FLT3 (human), P36888 [ITD]; details: compound 10.0 µM
# IGF1R (human) = IGF1R (human) (UniProt P08069); details: compound 10.0 µM
# IRAK1 (human) = IRAK1 (human) (UniProt P51617); details: compound 10.0 µM
# [3] = system: KIT (human), P10721 [D816H]; details: compound 10.0 µM
# MAP4K2 (human) = MAP4K2 (human) (UniProt Q12851); details: compound 10.0 µM
# MAP4K3 (human) = MAP4K3 (human) (UniProt Q8IVH8); details: compound 10.0 µM
# MATK (human) = MATK (human) (UniProt P42679); details: compound 10.0 µM
# MERTK (human) = MERTK (human) (UniProt Q12866); details: compound 10.0 µM
# [4] = system: MET (human), P08581 [Y1235D]; details: compound 10.0 µM
# MINK1 (human) = MINK1 (human) (UniProt Q8N4C8); details: compound 10.0 µM
# MKNK2 (human) = MKNK2 (human) (UniProt Q9HBH9)
# MKNK2 (human), sequence (Q9HBH9 whole entry, looked up): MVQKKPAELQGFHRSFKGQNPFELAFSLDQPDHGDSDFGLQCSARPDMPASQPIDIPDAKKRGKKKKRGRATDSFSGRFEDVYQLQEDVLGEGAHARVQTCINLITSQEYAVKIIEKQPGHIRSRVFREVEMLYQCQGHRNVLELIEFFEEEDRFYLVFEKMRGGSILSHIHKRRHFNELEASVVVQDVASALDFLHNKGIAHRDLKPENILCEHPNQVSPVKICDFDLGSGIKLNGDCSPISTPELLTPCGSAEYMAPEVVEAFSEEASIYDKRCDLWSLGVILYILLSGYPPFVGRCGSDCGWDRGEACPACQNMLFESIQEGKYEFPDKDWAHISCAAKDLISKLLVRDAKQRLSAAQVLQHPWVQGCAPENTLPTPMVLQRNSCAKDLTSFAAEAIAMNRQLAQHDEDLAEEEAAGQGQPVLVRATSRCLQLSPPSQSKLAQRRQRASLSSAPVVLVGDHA
# MST4 (human) = MST4 (human) (UniProt Q9P289); details: compound 10.0 µM
# MYO3A (human) = MYO3A (human) (UniProt Q8NEV4); details: compound 10.0 µM
# NEK1 (human) = NEK1 (human) (UniProt Q96PY6); details: compound 10.0 µM
# NEK1 (human), sequence (Q96PY6 whole entry, looked up): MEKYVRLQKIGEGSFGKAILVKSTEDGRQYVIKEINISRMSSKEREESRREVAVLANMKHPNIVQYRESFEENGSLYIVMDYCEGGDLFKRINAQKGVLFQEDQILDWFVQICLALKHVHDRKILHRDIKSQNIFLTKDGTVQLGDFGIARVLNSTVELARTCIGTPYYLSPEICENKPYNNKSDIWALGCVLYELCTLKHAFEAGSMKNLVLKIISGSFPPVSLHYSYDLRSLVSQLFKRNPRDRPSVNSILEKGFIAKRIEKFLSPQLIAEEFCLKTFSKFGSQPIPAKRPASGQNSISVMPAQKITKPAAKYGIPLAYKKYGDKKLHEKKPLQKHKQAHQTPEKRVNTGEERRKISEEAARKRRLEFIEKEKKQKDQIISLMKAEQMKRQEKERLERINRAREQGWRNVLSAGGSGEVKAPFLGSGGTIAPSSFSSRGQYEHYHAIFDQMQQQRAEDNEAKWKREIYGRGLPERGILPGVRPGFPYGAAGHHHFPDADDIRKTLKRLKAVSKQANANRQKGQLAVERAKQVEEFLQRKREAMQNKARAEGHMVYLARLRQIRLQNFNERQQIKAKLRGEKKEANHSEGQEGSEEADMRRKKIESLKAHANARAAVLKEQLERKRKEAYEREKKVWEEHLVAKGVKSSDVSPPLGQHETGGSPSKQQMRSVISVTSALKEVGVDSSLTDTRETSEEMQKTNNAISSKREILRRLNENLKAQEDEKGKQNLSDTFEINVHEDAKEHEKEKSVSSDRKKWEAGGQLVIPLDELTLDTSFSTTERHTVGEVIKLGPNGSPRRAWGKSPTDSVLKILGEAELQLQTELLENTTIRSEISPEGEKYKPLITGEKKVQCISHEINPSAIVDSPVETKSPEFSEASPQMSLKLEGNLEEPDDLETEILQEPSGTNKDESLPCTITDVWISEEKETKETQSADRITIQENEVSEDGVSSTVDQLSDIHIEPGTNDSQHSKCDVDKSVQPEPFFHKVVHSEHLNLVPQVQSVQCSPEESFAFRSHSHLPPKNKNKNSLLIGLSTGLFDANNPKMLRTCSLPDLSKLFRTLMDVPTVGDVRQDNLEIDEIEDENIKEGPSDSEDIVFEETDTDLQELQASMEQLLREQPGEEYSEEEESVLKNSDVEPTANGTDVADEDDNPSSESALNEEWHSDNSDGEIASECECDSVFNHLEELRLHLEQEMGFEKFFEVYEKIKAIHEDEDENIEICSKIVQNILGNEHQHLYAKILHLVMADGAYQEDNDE
# NEK2 (human) = NEK2 (human) (UniProt P51955); details: compound 10.0 µM
# NEK2 (human), sequence (P51955 whole entry, looked up): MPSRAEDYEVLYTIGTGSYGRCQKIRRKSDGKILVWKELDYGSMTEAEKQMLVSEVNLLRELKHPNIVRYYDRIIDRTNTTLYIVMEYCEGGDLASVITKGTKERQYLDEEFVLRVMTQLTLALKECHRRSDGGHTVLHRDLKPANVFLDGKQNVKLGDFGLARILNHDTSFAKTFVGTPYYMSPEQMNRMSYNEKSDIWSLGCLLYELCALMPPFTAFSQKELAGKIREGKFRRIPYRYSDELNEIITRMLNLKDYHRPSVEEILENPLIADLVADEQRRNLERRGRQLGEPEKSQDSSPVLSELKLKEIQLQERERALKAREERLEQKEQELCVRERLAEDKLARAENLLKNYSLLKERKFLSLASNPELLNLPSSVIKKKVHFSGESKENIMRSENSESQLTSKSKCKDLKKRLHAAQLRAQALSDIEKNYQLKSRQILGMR
# NEK9 (human) = NEK9 (human) (UniProt Q8TD19); details: compound 10.0 µM
# PKMYT1 (human) = PKMYT1 (human) (UniProt Q99640); details: compound 10.0 µM
# PLK3 (human) = PLK3 (human) (UniProt Q9H4B4); details: compound 10.0 µM
# PRKD2 (human) = PRKD2 (human) (UniProt Q9BZL6); details: compound 10.0 µM
# RPS6KA5 KD1 (human) = RPS6KA5 KD1 (human) (UniProt O75582); details: compound 10.0 µM
# SBK1 (human) = SBK1 (human) (UniProt Q52WX2); details: compound 10.0 µM
# SBK1 (human), sequence (Q52WX2 whole entry, looked up): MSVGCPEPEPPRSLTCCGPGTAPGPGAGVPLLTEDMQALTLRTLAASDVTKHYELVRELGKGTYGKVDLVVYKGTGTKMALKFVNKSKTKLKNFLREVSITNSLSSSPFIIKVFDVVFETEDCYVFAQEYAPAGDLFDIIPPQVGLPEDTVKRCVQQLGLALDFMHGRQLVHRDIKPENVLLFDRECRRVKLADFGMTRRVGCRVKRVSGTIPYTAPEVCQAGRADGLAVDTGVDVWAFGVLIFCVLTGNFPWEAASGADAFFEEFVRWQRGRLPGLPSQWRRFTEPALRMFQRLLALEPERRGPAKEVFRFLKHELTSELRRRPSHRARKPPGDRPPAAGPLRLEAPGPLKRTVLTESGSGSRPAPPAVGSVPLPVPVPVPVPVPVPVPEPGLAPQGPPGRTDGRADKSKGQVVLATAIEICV
# STK24 (human) = STK24 (human) (UniProt Q9Y6E0); details: compound 10.0 µM
# SYK (human) = SYK (human) (UniProt P43405); details: compound 10.0 µM
# TGFBR2 (human) = TGFBR2 (human) (UniProt P37173); details: compound 10.0 µM
# TXK (human) = TXK (human) (UniProt P42681); details: compound 10.0 µM
# ULK2 (human) = ULK2 (human) (UniProt Q8IYT8); details: compound 10.0 µM
# YSK4 (human) = YSK4 (human) (UniProt Q56UN5); details: compound 10.0 µM
smiles,measurement,setting,value
COc1cc(C(=O)N2CCC(N3CCN(C)CC3)CC2)ccc1Nc1ncc2c(n1)N(C)c1ccccc1C(=O)N2C,"kinase still bound, per cent of control",ACVR1 (human),98%
same,"kinase still bound, per cent of control",AKT1 (human),79%
same,"kinase still bound, per cent of control",AURKB (human),38%
same,"kinase still bound, per cent of control",AXL (human),100%
same,"kinase still bound, per cent of control",CDC42BPB (human),100%
same,"kinase still bound, per cent of control",CDC42BPG (human),100%
same,residual activity,CDKL3 (human),83%
same,"kinase still bound, per cent of control",CPK1 (P.falciparum),100%
same,"kinase still bound, per cent of control",DAPK1 (human),73%
same,Kd,DCLK1 (human),5 nM
same,"kinase still bound, per cent of control",DCLK1 (human); compound 10.0 µM,4.2%
same,"kinase still bound, per cent of control",DCLK3 (human),90%
same,"kinase still bound, per cent of control",[1],100%
same,"kinase still bound, per cent of control",EPHA4 (human),89%
same,"kinase still bound, per cent of control",FGFR4 (human),28%
same,"kinase still bound, per cent of control",[2],100%
same,residual activity,IGF1R (human),96%
same,"kinase still bound, per cent of control",IRAK1 (human),100%
same,"kinase still bound, per cent of control",[3],100%
same,"kinase still bound, per cent of control",MAP4K2 (human),100%
same,"kinase still bound, per cent of control",MAP4K3 (human),71%
same,"kinase still bound, per cent of control",MATK (human),100%
same,"kinase still bound, per cent of control",MERTK (human),100%
same,"kinase still bound, per cent of control",[4],100%
same,"kinase still bound, per cent of control",MINK1 (human),77%
same,Kd,MKNK2 (human),380 nM
same,"kinase still bound, per cent of control",MKNK2 (human); compound 10.0 µM,1.2%
same,"kinase still bound, per cent of control",MST4 (human),95%
same,"kinase still bound, per cent of control",MYO3A (human),94%
same,"kinase still bound, per cent of control",NEK1 (human),83%
same,"kinase still bound, per cent of control",NEK2 (human),100%
same,"kinase still bound, per cent of control",NEK9 (human),100%
same,"kinase still bound, per cent of control",PKMYT1 (human),80%
same,"kinase still bound, per cent of control",PLK3 (human),51%
same,"kinase still bound, per cent of control",PRKD2 (human),59%
same,"kinase still bound, per cent of control",RPS6KA5 KD1 (human),96%
same,"kinase still bound, per cent of control",SBK1 (human),100%
same,"kinase still bound, per cent of control",STK24 (human),87%
same,"kinase still bound, per cent of control",SYK (human),100%
same,"kinase still bound, per cent of control",TGFBR2 (human),100%
same,"kinase still bound, per cent of control",TXK (human),91%
same,"kinase still bound, per cent of control",ULK2 (human),67%
same,"kinase still bound, per cent of control",YSK4 (human),99%
